As a reminder, the IC50 is the concentration at which inhibition is half-maximal. Read a low IC50 as inhibition by little substance. For orientation: solubility means how much of the substance goes into solution per volume.

Values after ≈ are worked out from the molar mass of the structure shown.

Sequence of KRAS (G12D)::SOS1 protein-protein interaction (P01116 other isoform, or with tags, fused parts or gaps G12D): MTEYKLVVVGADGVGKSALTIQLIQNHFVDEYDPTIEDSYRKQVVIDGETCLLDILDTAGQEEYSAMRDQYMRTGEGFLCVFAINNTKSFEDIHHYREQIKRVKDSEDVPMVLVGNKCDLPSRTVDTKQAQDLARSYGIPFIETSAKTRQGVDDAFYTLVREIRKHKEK

The target in one data set is KRAS (G12D)::SOS1 protein-protein interaction (Homo sapiens (Human), UniProt P01116, G12D). Nature of the data set: KRAS::SOS1 AlphaScreen binding assay (KRAS G12D). The settings on record: GDP. A digest of the protocol:
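AlphaScreen assay with KRAS G12D (1-169, 6His/avi-tagged, 10 nM), GST-SOS1 564-1049 (5 nM) and GDP (10 μM) in PBS, 0.1% BSA, 0.05% Tween 20; compound up to 100 μM top concentration, eleven fivefold dilutions in duplicate. After 30 min, glutathione acceptor and streptavidin donor beads (10 μg/mL each) were added and signal read after a further 60 min at room temperature in the dark; IC50 from 4-parameter logistic fit.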
Background: Alpha assays give light when donor and acceptor beads are brought close together.
The compound `C[C@H](Oc1nc(-c2onc3c2CCC[C@@]32CCCc3sc(N)c(C#N)c32)nc2c1n(C)c(=O)n2[C@@H]1CCCOC1)[C@@H]1CCCN1C` [I-12] yielded a half-inhibitory concentration (IC50) of 1 nM.
The compound `C[C@H](Oc1nc(-c2onc3c2CCC[C@@]32CCCc3sc(N)c(C#N)c32)nc2c1COC[C@]21CCOC1)[C@@H]1CCCN1C` [I-54] registered an IC50 of 1 nM.
On the same count and under the same terms, the value for `CO[C@H]1CCN(C)[C@@H]1[C@H](C)Oc1nc(-c2noc3c2CCC[C@@]32CCCc3sc(N)c(C#N)c32)nc2c1n(C)c(=O)n2[C@@H]1CCCOC1` [II-3] was 2 nM; that for `C[C@H](Oc1nc(-c2onc3c2CCC[C@@]32CCCc3sc(N)c(C#N)c32)nc2c1n(C)c(=O)n2[C@@H]1CCOC1)[C@@H]1C[C@@H]2C[C@@H]2N1C` [I-28] was 4 nM.
On the same count and under the same terms, next, `Cc1cc2c(O[C@@H](C)[C@@H]3CCCN3C)nc(-c3onc4c3CCC[C@@]43CCCc4sc(N)c(C#N)c43)nc2n1[C@@H]1CCOC1` [I-40]: 2 nM.

Test system in another data set: not listed separately
Kind of data set: Solubility measurement (DMSO solution precipitation method). It is filed as physicochemical. The settings on record: aqueous buffer, kinetic from dmso stock, McIlvaine buffer pH 4.5, 24 h, read-out: solubility pH 4.5. In a few lines:
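A 10 mM DMSO stock was diluted to 250 μM final in McIlvaine buffer at pH 4.5 or 6.8, then shaken 24 h at ambient temperature. After filtering off precipitate, filtrate concentration was quantified by LC-UV against a fully dissolved reference in acetonitrile/water (1:1).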
For `C[C@H](Oc1nc(-c2onc3c2CCC[C@@]32CCCc3sc(N)c(C#N)c32)nc2c1n(C)c(=O)n2[C@@H]1CCCOC1)[C@@H]1CCCN1C` [I-12], the solubility at 24 h was above 155 µg/mL.
In the case of `C[C@H](Oc1nc(-c2onc3c2CCC[C@@]32CCCc3sc(N)c(C#N)c32)nc2c1COC[C@]21CCOC1)[C@@H]1CCCN1C` [I-54], the solubility at 24 h was above 145 µg/mL.
The same measure, in the same setting: the value for `CO[C@H]1CCN(C)[C@@H]1[C@H](C)Oc1nc(-c2noc3c2CCC[C@@]32CCCc3sc(N)c(C#N)c32)nc2c1n(C)c(=O)n2[C@@H]1CCCOC1` [II-3] was above 151 µg/mL; that for `C[C@H](Oc1nc(-c2onc3c2CCC[C@@]32CCCc3sc(N)c(C#N)c32)nc2c1n(C)c(=O)n2[C@@H]1CCOC1)[C@@H]1C[C@@H]2C[C@@H]2N1C` [I-28] was above 166 µg/mL.
As to `Cc1cc2c(O[C@@H](C)[C@@H]3CCCN3C)nc(-c3onc4c3CCC[C@@]43CCCc4sc(N)c(C#N)c43)nc2n1[C@@H]1CCOC1` [I-40], the solubility at 24 h was above 124 µg/mL.

Staying with this data set, now noted: aqueous buffer, kinetic from dmso stock, McIlvaine buffer pH 6.8, 24 h, read-out: solubility pH 6.8.
With `C[C@H](Oc1nc(-c2onc3c2CCC[C@@]32CCCc3sc(N)c(C#N)c32)nc2c1n(C)c(=O)n2[C@@H]1CCCOC1)[C@@H]1CCCN1C` [I-12], the solubility at 24 h was above 142 µg/mL.
The same measure, in the same setting: the value for `C[C@H](Oc1nc(-c2onc3c2CCC[C@@]32CCCc3sc(N)c(C#N)c32)nc2c1COC[C@]21CCOC1)[C@@H]1CCCN1C` [I-54] was above 142 µg/mL; that for `CO[C@H]1CCN(C)[C@@H]1[C@H](C)Oc1nc(-c2noc3c2CCC[C@@]32CCCc3sc(N)c(C#N)c32)nc2c1n(C)c(=O)n2[C@@H]1CCCOC1` [II-3] was 11 µg/mL (≈ 16.3 µM); that for `C[C@H](Oc1nc(-c2onc3c2CCC[C@@]32CCCc3sc(N)c(C#N)c32)nc2c1n(C)c(=O)n2[C@@H]1CCOC1)[C@@H]1C[C@@H]2C[C@@H]2N1C` [I-28] was 16 µg/mL (≈ 24.9 µM).
Still for that read-out and setting: next, `Cc1cc2c(O[C@@H](C)[C@@H]3CCCN3C)nc(-c3onc4c3CCC[C@@]43CCCc4sc(N)c(C#N)c43)nc2n1[C@@H]1CCOC1` [I-40]: 44 µg/mL (≈ 71.7 µM).

The test system of a further data set is NCI-H358 cells. Kind of data set: NCI-H358 CTG proliferation assay (120 h) (NSCLC, G12C). The class given is cell-based. The settings on record: Homo sapiens. A digest of the protocol:
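Cells seeded at 200 per well in RPMI-1640 with 10% FCS, left overnight, then treated with a logarithmic dose series in duplicate for 120 h. Viability measured by CellTiter-Glo luminescence as percent of DMSO controls; IC50 from four-parameter non-linear regression.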
The compound `C[C@H](Oc1nc(-c2onc3c2CCC[C@@]32CCCc3sc(N)c(C#N)c32)nc2c1n(C)c(=O)n2[C@@H]1CCCOC1)[C@@H]1CCCN1C` [I-12] registered an IC50 of 6 nM.
Same read-out and setting: the value for `C[C@H](Oc1nc(-c2onc3c2CCC[C@@]32CCCc3sc(N)c(C#N)c32)nc2c1COC[C@]21CCOC1)[C@@H]1CCCN1C` [I-54] was 3 nM.
The same measure, in the same setting: next, `CO[C@H]1CCN(C)[C@@H]1[C@H](C)Oc1nc(-c2noc3c2CCC[C@@]32CCCc3sc(N)c(C#N)c32)nc2c1n(C)c(=O)n2[C@@H]1CCCOC1` [II-3]: 8 nM; `C[C@H](Oc1nc(-c2onc3c2CCC[C@@]32CCCc3sc(N)c(C#N)c32)nc2c1n(C)c(=O)n2[C@@H]1CCOC1)[C@@H]1C[C@@H]2C[C@@H]2N1C` [I-28]: 55 nM; `Cc1cc2c(O[C@@H](C)[C@@H]3CCCN3C)nc(-c3onc4c3CCC[C@@]43CCCc4sc(N)c(C#N)c43)nc2n1[C@@H]1CCOC1` [I-40]: 17 nM.

In the next data set the test system is LOVO cells. Nature of the data set: LOVO CTG proliferation assay (120 h) (CRC, G13D). The class given is cell-based. The settings on record: Homo sapiens. A digest of the protocol: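 Cells seeded at 1000/well in DMEM + 10% FCS, dosed next day with a logarithmic compound series, technical duplicates, for 120 h. Viability by CellTiter-Glo luminescence as percent of DMSO control; IC50 from four-parameter non-linear regression.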
`C[C@H](Oc1nc(-c2onc3c2CCC[C@@]32CCCc3sc(N)c(C#N)c32)nc2c1n(C)c(=O)n2[C@@H]1CCCOC1)[C@@H]1CCCN1C` [I-12] displayed an IC50 of 19 nM.
The compound `C[C@H](Oc1nc(-c2onc3c2CCC[C@@]32CCCc3sc(N)c(C#N)c32)nc2c1COC[C@]21CCOC1)[C@@H]1CCCN1C` [I-54] yielded an IC50 of 4 nM.
Still for that read-out and setting: next, `CO[C@H]1CCN(C)[C@@H]1[C@H](C)Oc1nc(-c2noc3c2CCC[C@@]32CCCc3sc(N)c(C#N)c32)nc2c1n(C)c(=O)n2[C@@H]1CCCOC1` [II-3]: 2 nM; `C[C@H](Oc1nc(-c2onc3c2CCC[C@@]32CCCc3sc(N)c(C#N)c32)nc2c1n(C)c(=O)n2[C@@H]1CCOC1)[C@@H]1C[C@@H]2C[C@@H]2N1C` [I-28]: 105 nM.
The same measure, in the same setting: the value for `Cc1cc2c(O[C@@H](C)[C@@H]3CCCN3C)nc(-c3onc4c3CCC[C@@]43CCCc4sc(N)c(C#N)c43)nc2n1[C@@H]1CCOC1` [I-40] was 43 nM.

Test system in a further data set: not listed separately
Kind of data set: Plasma protein binding assay (PPB), equilibrium dialysis. It is filed as in vitro ADME. The settings on record: bovine, 10% FCS in PBS, read-out: PPB 10% FCS (% fu). In a few lines:
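Compound at 1-10 μmol/L in 10% FCS in PBS was dialysed against PBS (with or without dextran) across a 5-10 kg/mol cut-off membrane for 3-5 h at 37° C. Both chambers were protein-precipitated and compound was quantified by LC-MS. The unbound fraction was calculated from the serum-side and buffer-side concentrations.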
Consider `C[C@H](Oc1nc(-c2onc3c2CCC[C@@]32CCCc3sc(N)c(C#N)c32)nc2c1n(C)c(=O)n2[C@@H]1CCCOC1)[C@@H]1CCCN1C` [I-12], for which the fraction unbound is 0.18.
The same measure, in the same setting: the value for `C[C@H](Oc1nc(-c2onc3c2CCC[C@@]32CCCc3sc(N)c(C#N)c32)nc2c1COC[C@]21CCOC1)[C@@H]1CCCN1C` [I-54] was 0.34.
The same measure, in the same setting: next, `CO[C@H]1CCN(C)[C@@H]1[C@H](C)Oc1nc(-c2noc3c2CCC[C@@]32CCCc3sc(N)c(C#N)c32)nc2c1n(C)c(=O)n2[C@@H]1CCCOC1` [II-3]: 0.03.
Take `C[C@H](Oc1nc(-c2onc3c2CCC[C@@]32CCCc3sc(N)c(C#N)c32)nc2c1n(C)c(=O)n2[C@@H]1CCOC1)[C@@H]1C[C@@H]2C[C@@H]2N1C` [I-28]: the fraction unbound was 0.05.
Take `Cc1cc2c(O[C@@H](C)[C@@H]3CCCN3C)nc(-c3onc4c3CCC[C@@]43CCCc4sc(N)c(C#N)c43)nc2n1[C@@H]1CCOC1` [I-40]: the fraction unbound worked out at 0.09.

For the origin of these results see patent publication US20250019385A1, “SPIROCYCLIC ANNULATED 2-AMINO-3-CYANO THIOPHENES AND DERIVATIVES FOR THE TREATMENT OF CANCER” (Boehringer Ingelheim International GmbH, priority 2023, published 2025).
